In patent US20080300298A1, “Honokiol Derivates For the Treatment of Proliferative Disorders” (priority 2005, published 2008):
≈ marks a conversion by molar mass, not a printed value. Like-named read-outs stand apart in the source and are kept apart here.

Experiments:
[1] = tested on: human multiple myeloma (MM) cell lines; assay: colorimetric (WST-8) growth assay; type: cell-based; details: for IC50: Homo sapiens
Text: Cells: Dexamethasone (Dex)-sensitive MM.1S (wild-type p53) and Dex-resistant MM.1R, RPMI 8226-Dox40 (doxorubicin resistant) and RPMI 8226-LR5 (melphalan resistant) human multiple myeloma (MM) cell lines were used. RPMI-8226 and U266 cells were obtained from the American Type Culture Collection (Rockville, Md.). SU-DHL-4 cells were also utilized. Fresh peripheral blood mononuclear cells (PBMNCs) were obtained from healthy subjects after informed consent. The PBMNC were separated from heparinized peripheral blood by Ficoll-Hipaque density sedimentation. BM specimens were acquired from patients with MM after obtaining informed consent and mononuclear cells were separated by Ficoll-Hipaque density sedimentation. Cells were cultured at 37° C. in RPMI 1640 containing 10% fetal bovine serum (FBS; Sigma, St Louis, Mo.), […], 100 U/mL penicillin, and 100 μg/mL streptomycin (Gibco, Grand Island, N.Y.).
Reagents: Honokiol (HNK; Calbiochem, San Diego, Calif.) was dissolved in ethanol at 20 mg/ml stock solution. Recombinant human interleukin-6 (IL-6), vascular endothelial growth factor (VEGF) and insulin-like growth factor-1 (IGF-1) (R&D Systems, Minneapolis, Minn.) were reconstituted with sterile PBS containing 0.1% FBS (IL-6 and VEGF) and 10 mM of acetic acid containing 0.1% FBS (IGF-1), respectively. Pan-caspase inhibitor z-VAD-fmk (Bachem, Bubendorf, Switzerland) was dissolved in methanol. These reagents were stored at −20° C. and diluted by media just before the use. Doxorubicin (Sigma, St Louis, Mo.) was dissolved in sterile water at the concentration of 3.45 mM. […] Absorbance readings at a wavelength of 450 nm were taken on a spectrophotometer (Molecular Devices Corp., Sunnyvale, Calif.).
HNK inhibits growth of MM cell lines. To identify the therapeutic potential of HNK, MM cell lines and normal PBMNCs were cultured at indicated concentration with HNK for 48 h, and growth was determined by calorimetric assays. […] FIGS. 6A and B show growth inhibition in MM cell lines by HNK as assessed by calorimetric assay after 48 h-culture. […]

HUVEC = assay: In Vitro Angiogenesis Assay (tube formation); type: cell-based, human; details: 8 ug/ml, 6 h
RAW 264.7 cells = assay: Osteoclast differentiation assay (RANKL); type: cell-based, mouse; details: RAW 264.7, 5 mM (printed) honokiol 12 h, 5 nM RANKL
Experimental: (A) RAW 264.7 cells (1×10^4) were plated overnight, pretreated with 5 mM honokiol for 12 h, and then treated with 5 nM RANKL. At 4 and 5 days later, cells were stained for TRAP and evaluated for osteoclastogenesis. Photographs were taken after 5 days of incubation with RANKL. (B) The numbers of TRAP-positive multinucleated osteoclasts (>3 nuclei) per well were counted. (C) H1299 cells (2.5×10^4) were seeded into the upper wells of a Matrigel invasion chamber overnight in the absence of serum, pretreated with […] honokiol for 12 h, treated with 1 nM TNF for 24 h in the presence of 1% serum, and then subjected to invasion assay. The value for no honokiol and no TNF was set to 1.0.
Osteoclast differentiation assay. […] At days 4 and 5, the cells were stained for tartrate-resistant acid phosphatase (TRAP) expression, as previously described (18) using an acid phosphatase kit (Sigma-Aldrich), and the TRAP-positive multinucleated osteoclasts (>3 nuclei) per well were counted.
Honokiol suppresses RANKL-induced osteoclastogenesis. Because RANKL, a member of the TNF superfamily, induces osteoclastogenesis through the activation of NF-kB (Abu-Amer, Y., et al. 1997 Nat. Med. 3:1189-1190), whether honokiol can suppress RANKL-induced osteoclastogenesis was assessed. […]

CH12.hCD40-LMP1 B cells = assay: CD40/LMP1 mediated cytokine and IgM production; type: cell-based, mouse
Experimental: IL-6 and TNF-a levels in culture supernatants were determined by ELISA. Subsequent IgM production by CH12.LX cells is also affected, as determined by assaying IgM secretion by CH12.hCD40-LMP1 cells. IgM secretion was measured by hemolytic plaque assay, as previously described (GA Bishop. 1991. J. Immunol. 147(4): 1107-1114).

C=CCc1ccc(O)c(-c2ccc(O)c(CC=C)c2)c1 [HNK, Honokiol]
IC50 ([1]; drug sensitive RPM18226, U266 and MM.1S cells, 48 h, read-out: fifty percent inhibition (IC50) at 48 h): 8 to 10 µg/mL (≈ 30 to 37.5 µM)
IC50 ([1]; including Melphalan-, Doxorubicin- and Dex-resistant cell lines, read-out: IC50 of growth inhibition of MM cell lines): < 10 µg/mL
growth of drug resistant cell lines ([1]; RPM18226-Dox40, RPM18226-LR5 and MM.1R cells, 48 h): IC50 values similar to parental drug-sensitive cell lines
tube formation by endothelial cells (HUVEC): significantly inhibited the tube formation
RANKL-induced osteoclast differentiation (TRAP) (RAW 264.7 cells): suppressed it
CD40/LMP1 mediated IL-6, TNF-a production (CH12.hCD40-LMP1 B cells; CH12.LX cells transfected with hCD40-LMP1, not IL-10 or IL-4): inhibits CD40/LMP1 mediated IL-6, TNF-a production in a dose-dependent manner
IgM secretion (hemolytic plaque assay) (CH12.hCD40-LMP1 B cells; CH12.hCD40-LMP1 cells): inhibited IgM production
